Test results as given in patent publication US6872803B1, “Peptides” (Kyowa Hakko Kogyo Co., Ltd., priority 1993, dated 2005).
Where a SMILES comes first, the peptide text is derived from it. Bridges are numbered along the chain shown (N, C = ends). [ ]: non-standard residue; d: D form. Hyp = O=C(O)[C@@H]1C[C@@H](O)CN1

Legend:
prolyl-endopeptidase [1] = target: prolyl-endopeptidase (Elizabethkingia meningoseptica, UniProt P27028); experiment: in vitro; details: prolyl-endopeptidase in PBS(−) buffer, pH 7.2
Description: (§2) The resulting mixture was incubated at 37° C. and sampled at intervals. The samples were analyzed by HPLC, using a reversed-phase column (YMC-Pack, ODS-AM, 150×6 mm I.D.). Elution was carried out by linear gradient elution using acetonitrile (0% to 45%) containing 0.1% TFA for 30 minutes. Absorbance at 220 nm of the eluate was measured.

[2] = system: B16-F10 (mouse melanoma) cells; experiment: Cell-adhesion inhibiting activity (adhesion of biotin-labeled cells to mouse fibronectin-coated plate); type: cell-based
Description: To a 96-well flat bottom plate (Sumitomo Bakelite Co.) added were […] (5 μg/ml-culture) of mouse fibronectin (produced by Telios Pharmaceutical Inc.). The plate was allowed to stand for 2 hours at room temperature to coat with mouse fibronectin. Each solution was added to the plate. Next, biotin-labeled B16-F10 (mouse melanoma) cells were added thereto and incubated at 37° C. for 30 minutes. After incubation, the non-adhered cells were removed by suction, and the adhered cells were fixed by 0.25% glutaraldehyde/PBS. The thus-fixed cells were washed with Tween-PBS, and peroxidase-labeled avidin D (Vector Co.) was added thereto and reacted for one hour at room temperature. Thereafter, the cells were washed with Tween-PBS and colored with an ABTS solution. Using NJ-2001 (Nippon Intermed Co.), the absorbance of the colored cells at OD415 was measured by colorimetry.
From the absorbance thus measured, the percentage inhibition of adhesion of the cells was obtained according to the following equation: Percentage Inhibition of Cell Adhesion=[(A−B)/A]×100 • A: absorbance in the absence of the test compound • B: absorbance in the presence of the test compound […]

[3] = system: platelet-rich plasma (PRP); experiment: Inhibitory activity against agglutination of platelets stimulated by collagen; type: cell-based, white rabbit; details: collagen 10 μg/ml
Description: The blood was collected from the heart of a white rabbit (male weight 2 kg) and mixed with 3.8% sodium citrate (1:9 3.8% sodium citrate/blood). The mixture was centrifuged at 900 r.p.m., and the supernatant was isolated as platelet-rich plasma (PRP). The remaining lower layer was centrifuged at 2500 r.p.m., and the supernatent was isolated as platelet-poor plasma (PPP). These isolates were used in the following test. The percentage of platelet agglutination was measured, using a platelet agglutination measuring device, TE-500 (produced by Elmer Optical Co.). As the standard for platelet agglutination in this test, the percentage of platelet agglutination measured in PRP only was defined as 0%, while that measured in PPP only as 100%. Test solutions each containing a test compound, compound (1) or compound (b) were prepared so as to give a final concentration of 1, 0.3 or 0.1 mM.
Ten μl of re-distilled water (as a control) or the test solution and 200 μl of PRP were put into a cuvet and pre-incubated for 3 minutes, then 10 μl of a collagen that had been prepared to have a final concentration of 10 μg/ml were added thereto, and the percentage of platelet agglutination was measured.

trypsin = experiment: in vitro; details: pH 7.2
Description: To this was added trypsin (Sigma Co.) in an amount of 1/20 weight of compound (1) or (b). The resulting solution was incubated at 37° C. and sampled at intervals. The samples were analyzed by HPLC, using a reversed-phase column (YMC-Pack, ODS-AM, 150×6 mm I.D.). Elution was carried out by linear gradient elution using acetonitrile (0% to 45%) containing 0.1% TFA for 30 minutes. Absorbance at 220 nm of the eluates was measured.

prolyl-endopeptidase [4] = experiment: in vitro; details: prolyl-endopeptidase (Seikagaku Corporation), pH 7.2
Description: as §2

[5] = snake venom peptides, literature; cited from earlier work
α-chymotrypsin [6] = system: T1, α-chymotrypsin; experiment: Stability to α-chymotrypsin; type: in vitro ADME; details: α-chymotrypsin (Sigma Co.); after 6 hours; α-chymotrypsin 1/10 weight, pH 7.2, 37° C.; read-out: residual amount remaining
T1 construct: purchased Sigma Co
Description: (§1) To this were added α-chymotrypsin (Sigma Co.) and N^α-p-tosyl-L-lysine chloromethyl ketone (Sigma Co.) each in an amount of 1/10 weight of compound (2) or (c). […] Absorbance at 220 nm of the eluate was measured.

α-chymotrypsin [7] = target: T2, α-chymotrypsin (Bos taurus, UniProt P00766, DEL14-15/DEL147-148); experiment: Stability to α-chymotrypsin; type: in vitro ADME; details: α-chymotrypsin (Sigma Co.) in PBS(−) buffer; α-chymotrypsin 1/10 weight, PBS(−) pH 7.2, 37° C.
T2 construct: purchased Sigma Co
Description: as §1

[8] = target: T3, BK receptor derived from guinea pig ilea (Cavia porcellus, UniProt O70526); experiment: BK-receptor binding inhibiting activity; details: 3H-BK 200 pM
T3 construct: from tissue; host or cells: guinea pig ileum membrane fraction
T3 sequence (O70526 1-372): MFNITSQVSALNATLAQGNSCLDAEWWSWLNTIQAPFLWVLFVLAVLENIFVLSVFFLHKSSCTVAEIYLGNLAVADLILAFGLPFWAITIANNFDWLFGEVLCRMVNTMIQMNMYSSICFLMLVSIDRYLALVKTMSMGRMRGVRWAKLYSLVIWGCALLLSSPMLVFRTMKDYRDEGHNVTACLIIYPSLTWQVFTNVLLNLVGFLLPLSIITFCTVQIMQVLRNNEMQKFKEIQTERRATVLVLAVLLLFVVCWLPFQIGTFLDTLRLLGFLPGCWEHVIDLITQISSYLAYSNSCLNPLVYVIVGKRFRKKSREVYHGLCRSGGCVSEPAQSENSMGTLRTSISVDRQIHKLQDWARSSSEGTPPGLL
Description: Inhibition of the binding of BK to the BK receptor derived from guinea pig ilea
Using a polytron (Type PT10/35, Kinematica Gmbh), guinea pig ilea was homogenized in buffer (A) (containing 25 mM N-tris(hydroxymethyl)methyl-2-aminoethane-sulfonic acid-NaOH, pH 6.8) at 4° C.
The suspension thus obtained was centrifuged at 4° C. for 10 minutes at 8,000×g, and the supernatant was collected. The supernatant was further centrifuged at 4° C. for 60 minutes at 40,000×g, and the solid was collected. The solid was suspended in buffer (A), and the resulting suspension was centrifuged at 4° C. for 60 minutes at 40,000×g. The resulting solid was suspended to give a protein content of 2 mg/ml to serve as a membrane fraction. […]
^3H-BK (200 pM) was added to each of the membrane fraction solutions, to which non-labeled BK (final concentration: 1 μM) had been added, a test compound had been added or none of these had been added. […] The filter was washed with buffer (C) (comprising 50 mM Tris-HCl, 1 mM EDTA, pH 7.6), and the radioactivity of the filter was measured, using a liquid scintillation counter (LSC3500, Aroka Co.) to determine the amount of the ^3H-BK bound to the receptor and non-specifically bound 3H-BK. […]

prolyl-endopeptidase (Elizabethkingia meningoseptica, UniProt P27028), sequence (P27028 21-705): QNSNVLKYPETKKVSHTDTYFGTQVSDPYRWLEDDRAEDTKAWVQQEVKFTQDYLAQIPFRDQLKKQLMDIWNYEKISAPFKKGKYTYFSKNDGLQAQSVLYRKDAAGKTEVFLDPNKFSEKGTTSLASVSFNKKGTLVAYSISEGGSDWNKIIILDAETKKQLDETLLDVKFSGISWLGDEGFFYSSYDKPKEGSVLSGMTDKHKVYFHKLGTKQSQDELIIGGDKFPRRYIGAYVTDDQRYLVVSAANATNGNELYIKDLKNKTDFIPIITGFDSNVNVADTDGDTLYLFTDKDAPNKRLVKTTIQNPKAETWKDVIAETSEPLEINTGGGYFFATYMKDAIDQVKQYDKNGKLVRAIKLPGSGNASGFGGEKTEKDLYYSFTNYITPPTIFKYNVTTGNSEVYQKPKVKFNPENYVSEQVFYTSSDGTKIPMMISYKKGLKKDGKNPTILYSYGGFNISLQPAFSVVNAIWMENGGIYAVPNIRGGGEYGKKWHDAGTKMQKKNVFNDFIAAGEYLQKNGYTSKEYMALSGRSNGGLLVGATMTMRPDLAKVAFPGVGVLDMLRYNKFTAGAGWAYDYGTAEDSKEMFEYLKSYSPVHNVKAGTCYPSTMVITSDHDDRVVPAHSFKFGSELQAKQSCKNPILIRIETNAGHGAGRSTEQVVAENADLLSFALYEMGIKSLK

In the case of “H-SMGLPCVVM-OH [Compound d, H-Ser-Met-Gly-Leu-Pro-Cys-Val-Val-Met-OH]”, the half-life at 25 μg/ml (prolyl-endopeptidase [1]) is reported as under 1 h.

With “H-VTGRGDSPA-OH [Compound b, H-Val-Thr-Gly-Arg-Gly-Asp-Ser-Pro-Ala-OH]” the IC50 ([2]; B16-F10 cells on mouse fibronectin, 37° C. 30 minutes, read-out: concentration for 50% inhibition of the adhesion of the cells (IC50)) was 1.13 mM, the “Percentage of platelet agglutination inhibition (%)” value ([3]; test compound 0.3 mM) was 20.3% and the “Percentage of platelet agglutination inhibition (%)” value ([3]; test compound 1.0 mM) was 61.2%. It also gave a half-life at 25 μg/ml (trypsin; trypsin (Sigma Co.) in PBS(−) buffer) of under 2 h.

Compound “H-SMGLPCIFM-OH [Compound f, H-Ser-Met-Gly-Leu-Pro-Cys-Ile-Phe-Met-OH]” has a remaining at 1 h, 25 μg/ml (prolyl-endopeptidase [4]) of 12%.

In the case of flavoridin, the “activity, times higher than the activity of Gly-Arg-Gly-Asp-Ser” value (from here on “activity, times higher than the activity”) [5] is given as about 1000 times.

`CC(C)[C@H](NC(=O)[C@H](C)NC(=O)[C@H](Cc1ccc(O)cc1)NC(=O)[C@@H](NC(=O)[C@H](Cc1c[nH]c2ccccc12)NC(=O)[C@@H]1CC(=O)NCC(=O)N[C@@H](CC(N)=O)C(=O)N[C@@H](Cc2c[nH]c3ccccc23)C(=O)N[C@@H](Cc2c[nH]cn2)C(=O)NCC(=O)N[C@@H]([C@@H](C)O)C(=O)N[C@@H](C)C(=O)N2CCC[C@H]2C(=O)N1)C(C)C)C(=O)N[C@H](C(=O)NCC(=O)N[C@@H](CCCNC(=N)N)C(=O)NCC(=O)N[C@@H](CC(=O)O)C(=O)N[C@@H](CO)C(=O)N1CCC[C@H]1C(=O)N[C@@H](C)C(N)=O)[C@@H](C)O` [Compound 2] (GNWHGTAPDWVYAVTGRGDSPA-NH2; lactam N-9) showed a remaining at 6 h, 25 μg/ml (α-chymotrypsin [6]) of about 95%.

In the case of trigramin, the “activity, times higher than the activity” value [5] is listed as about 1000 times.

With “H-VYAVTGRGDSPA-NH2 [c, H-Val-Tyr-Ala-Val-Thr-Gly-Arg-Gly-Asp-Ser-Pro-Ala-NH2]” the “cell adhesion-inhibiting activity (comparison, FIG. 2)” value ([2]; same test, compound (2) versus compound (c)) was “almost the same cell adhesion-inhibiting activity” and the half-life at 25 μg/ml (α-chymotrypsin [7]) was under 1 h.

In the case of H-[dR]RP[Hyp]GFS[dF]LR-OH [Compound m], the “Percentage inhibition (%)” value ([8]; test compound 10^−7 M) is reported as 68% and the “Percentage inhibition (%)” value ([8]; test compound 10^−8 M) is reported as 20%.

Compound `CSCC[C@H](NC(=O)[C@@H](NC(=O)[C@@H](NC(=O)[C@H](CS)NC(=O)[C@@H]1CCCN1C(=O)[C@H](CC(C)C)NC(=O)CNC(=O)[C@H](CCSC)NC(=O)[C@H](CO)NC(=O)[C@H](Cc1c[nH]c2ccccc12)NC(=O)[C@@H]1CC(=O)NCC(=O)N[C@@H](CC(N)=O)C(=O)N[C@@H](Cc2c[nH]c3ccccc23)C(=O)N[C@@H](Cc2c[nH]cn2)C(=O)NCC(=O)N[C@@H]([C@@H](C)O)C(=O)N[C@@H](C)C(=O)N2CCC[C@H]2C(=O)N1)C(C)C)C(C)C)C(=O)O` [Compound 3] (GNWHGTAPDWSMGLPCVVM-OH; lactam N-9) has a remaining at 7 h, 25 μg/ml (prolyl-endopeptidase [4]) of about 60%.

In the case of albolarin, the “activity, times higher than the activity” value [5] is given as about 1000 times.

`CC(C)[C@H](NC(=O)[C@H](Cc1c[nH]c2ccccc12)NC(=O)[C@@H]1CC(=O)NCC(=O)N[C@@H](CC(N)=O)C(=O)N[C@@H](Cc2c[nH]c3ccccc23)C(=O)N[C@@H](Cc2c[nH]cn2)C(=O)NCC(=O)N[C@@H]([C@@H](C)O)C(=O)N[C@@H](C)C(=O)N2CCC[C@H]2C(=O)N1)C(=O)N[C@H](C(=O)NCC(=O)N[C@@H](CCCNC(=N)N)C(=O)NCC(=O)N[C@@H](CC(=O)O)C(=O)N[C@@H](CO)C(=O)N1CCC[C@H]1C(=O)N[C@@H](C)C(=O)O)[C@@H](C)O` [Compound 1] (GNWHGTAPDWVTGRGDSPA-OH; lactam N-9) gave a remaining at 9 h, 25 μg/ml (trypsin; trypsin (Sigma Co.)) of about 60%.

`CC[C@H](C)[C@H](NC(=O)[C@H](CS)NC(=O)[C@@H]1CCCN1C(=O)[C@H](CC(C)C)NC(=O)CNC(=O)[C@H](CCSC)NC(=O)[C@H](CO)NC(=O)[C@H](Cc1c[nH]c2ccccc12)NC(=O)[C@@H]1CC(=O)NCC(=O)N[C@@H](CC(N)=O)C(=O)N[C@@H](Cc2c[nH]c3ccccc23)C(=O)N[C@@H](Cc2c[nH]cn2)C(=O)NCC(=O)N[C@@H]([C@@H](C)O)C(=O)N[C@@H](C)C(=O)N2CCC[C@H]2C(=O)N1)C(=O)N[C@@H](Cc1ccccc1)C(=O)N[C@@H](CCSC)C(=O)O` [Compound 5] (GNWHGTAPDWSMGLPCIFM-OH; lactam N-9) showed a remaining at 1 h, 25 μg/ml (prolyl-endopeptidase [4]) of 63%.
